Assay results taken from ChEMBL document CHEMBL1201862, “PubChem BioAssay data set” (2004).
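Following 48 hours of exposure in 96-well plates, responses at five concentrations were used to interpolate endpoints linearly. The concentration for 50% growth inhibition is given as GI50.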 Calls of active or inactive are those of the source. Rule as the data show it: active = GI50 up to about 1.1 µM and inactive = higher.

Legend:
Assay in all cases: NCI tumour cell line growth inhibition, 48 h
[1] = test system: LOX IMVI
[2] = test system: SNB-75
[3] = test system: UACC-62
[4] = test system: MOLT-4
[5] = test system: ACHN
[6] = test system: NCI-H460
[7] = test system: HT-29
[8] = test system: UO-31
[9] = test system: SN12C
[10] = test system: OVCAR-5
[11] = test system: T47D
[12] = test system: SF-268
[13] = test system: M14
[14] = test system: TK-10
[15] = test system: 786-0
[16] = test system: NCI-H522
[17] = test system: Hs-578T
[18] = test system: UACC-257
[19] = test system: NCI-H23
[20] = test system: OVCAR-4

| SMILES | GI50 [1] | GI50 [2] | GI50 [3] | GI50 [4] | GI50 [5] | GI50 [6] | GI50 [7] | GI50 [8] | GI50 [9] | GI50 [10] | GI50 [11] | GI50 [12] | GI50 [13] | GI50 [14] | GI50 [15] | GI50 [16] | GI50 [17] | GI50 [18] | GI50 [19] | GI50 [20] |
| --- | --- | --- | --- | --- | --- | --- | --- | --- | --- | --- | --- | --- | --- | --- | --- | --- | --- | --- | --- | --- |
| C=C(C)[C@@H]1CC[C@]2(C(=O)O)CC[C@]3(C)[C@H](CC[C@@H]4[C@@]5(C)CC[C@H](O)C(C)(C)[C@@H]5CC[C@]43C)[C@@H]12 [BETULINIC ACID] | 11.3 µM (inactive) | 8.87 µM (inactive) | 14.1 µM (inactive) | 4.51 µM (inactive) | 8.28 µM (inactive) | 7.28 µM (inactive) | 8.24 µM (inactive) | 11 µM (inactive) | 10.8 µM (inactive) | 12.4 µM (inactive) | 7.13 µM (inactive) | 7.6 µM (inactive) | 10.3 µM (inactive) | 14.8 µM (inactive) | 10.2 µM (inactive) | 3.21 µM (inactive) | 10.8 µM (inactive) | 6.03 µM (inactive) | 2.58 µM (inactive) | 5.83 µM (inactive) |
| COc1ccc(/C=C/c2ccnc3ccccc23)c(OC)c1 | 7.71 µM (inactive) | 4.23 µM (inactive) | 5.16 µM (inactive) | 4.54 µM (inactive) | 9.75 µM (inactive) | 6.05 µM (inactive) |  | > 10 µM (inactive) | > 10 µM (inactive) | > 10 µM (inactive) | > 10 µM (inactive) | > 10 µM (inactive) | > 10 µM (inactive) | > 10 µM (inactive) | 9.25 µM (inactive) | 6.62 µM (inactive) | 5.98 µM (inactive) | > 10 µM (inactive) |  | > 10 µM (inactive) |
| Clc1cccc(/C=N/C23CC4CC(CC(C4)C2)C3)c1Cl | > 10 µM (inactive) | 5.36 µM (inactive) | > 10 µM (inactive) |  | > 10 µM (inactive) | > 10 µM (inactive) | > 10 µM (inactive) |  | > 10 µM (inactive) | > 10 µM (inactive) | > 10 µM (inactive) | > 10 µM (inactive) | > 10 µM (inactive) | > 10 µM (inactive) | > 10 µM (inactive) | > 10 µM (inactive) | > 10 µM (inactive) | > 10 µM (inactive) | > 10 µM (inactive) | > 10 µM (inactive) |
| COc1cc(OC)cc(Oc2nc3cc(F)c(F)cc3nc2-c2ccccc2)c1 | > 100 µM (inactive) | > 100 µM (inactive) | > 100 µM (inactive) | > 100 µM (inactive) | > 100 µM (inactive) | > 100 µM (inactive) | > 100 µM (inactive) | > 100 µM (inactive) | > 100 µM (inactive) | > 100 µM (inactive) | > 100 µM (inactive) | > 100 µM (inactive) | > 100 µM (inactive) | > 100 µM (inactive) | > 100 µM (inactive) | > 100 µM (inactive) | > 100 µM (inactive) | > 100 µM (inactive) | > 100 µM (inactive) | > 100 µM (inactive) |
| Brc1ccc2c(-c3nc(-c4c[nH]c5ccc(Br)cc45)cs3)c[nH]c2c1 | 2.32 µM (inactive) | 14.5 µM (inactive) | 2.87 µM (inactive) | 2.46 µM (inactive) | 1.67 µM (inactive) | 2.68 µM (inactive) | 1.86 µM (inactive) | 4.1 µM (inactive) | 4.63 µM (inactive) | 2.96 µM (inactive) | 4.86 µM (inactive) | 4.82 µM (inactive) | 3.92 µM (inactive) | 5.51 µM (inactive) | 2.24 µM (inactive) | 1.95 µM (inactive) | 7.21 µM (inactive) | 8.75 µM (inactive) | 3.24 µM (inactive) | 9.33 µM (inactive) |
| CC(=O)OC/C=C(\C)CCC(Br)C(C)(C)Br (stereo not drawn) | > 10 µM (inactive) | > 10 µM (inactive) | > 10 µM (inactive) | > 10 µM (inactive) | > 10 µM (inactive) | > 10 µM (inactive) | > 10 µM (inactive) | 0.001 µM (active) | > 10 µM (inactive) | > 10 µM (inactive) | > 10 µM (inactive) | > 10 µM (inactive) | > 10 µM (inactive) | > 10 µM (inactive) | > 10 µM (inactive) | > 10 µM (inactive) | > 10 µM (inactive) | > 10 µM (inactive) | > 10 µM (inactive) | > 10 µM (inactive) |
| COc1ccc(-c2cc(=O)c3c(O)c(OC)c(OC)c(OC)c3o2)cc1 [GARDENIN B] | 17.6 µM (inactive) | 10.2 µM (inactive) | 45.3 µM (inactive) | > 100 µM (inactive) | > 100 µM (inactive) | 24.9 µM (inactive) | 4.17 µM (inactive) | > 100 µM (inactive) | > 100 µM (inactive) | 98.6 µM (inactive) | 26.9 µM (inactive) | > 68.4 µM (inactive) | 16.5 µM (inactive) | 26.2 µM (inactive) | 21.5 µM (inactive) | 6.58 µM (inactive) | 26.2 µM (inactive) | > 100 µM (inactive) | > 36.3 µM (inactive) | > 100 µM (inactive) |
| Cn1c(N2CCCC2)c(C=O)c(=O)n(C)c1=O | > 100 µM (inactive) | 14.1 µM (inactive) | > 100 µM (inactive) | > 100 µM (inactive) | > 100 µM (inactive) | > 100 µM (inactive) | > 100 µM (inactive) | > 100 µM (inactive) | > 100 µM (inactive) | > 100 µM (inactive) | > 100 µM (inactive) | 96.8 µM (inactive) | > 100 µM (inactive) | > 100 µM (inactive) | > 100 µM (inactive) | > 100 µM (inactive) | 91.6 µM (inactive) | > 100 µM (inactive) | > 100 µM (inactive) | > 100 µM (inactive) |
| C=C(C)[C@H]1C=C[C@@H](OC(=O)c2cccnc2)[C@@]23CO[C@@](C)([C@H](OC(=O)c4cccnc4)[C@@]4(OC(C)=O)C[C@H](C)[C@H](OCCC)[C@@H]4[C@H]2OC(C)=O)[C@H]13 | > 15 µM (inactive) | 3.82 µM (inactive) | > 15 µM (inactive) | 7.1 µM (inactive) | > 15 µM (inactive) | 4.94 µM (inactive) |  | > 15 µM (inactive) | > 15 µM (inactive) | > 15 µM (inactive) | > 15 µM (inactive) | > 15 µM (inactive) | 12.7 µM (inactive) | > 15 µM (inactive) | > 15 µM (inactive) | > 15 µM (inactive) | 13.5 µM (inactive) | > 15 µM (inactive) | > 15 µM (inactive) | 10.3 µM (inactive) |
| N#Cc1c(N)c2c(c(-c3ccccc3)c1-c1ccccc1)C(=O)N(NC(=S)Nc1ccccc1)C2=O | 90.2 µM (inactive) | 65.2 µM (inactive) | 73.8 µM (inactive) | 46.8 µM (inactive) | 94.2 µM (inactive) | 61.4 µM (inactive) |  | 34.1 µM (inactive) | > 100 µM (inactive) | 35.2 µM (inactive) | 48.2 µM (inactive) | > 100 µM (inactive) | > 100 µM (inactive) | 84.5 µM (inactive) | > 100 µM (inactive) | 57.3 µM (inactive) | 39.4 µM (inactive) | > 100 µM (inactive) |  | 51.1 µM (inactive) |
| Cn1c(=O)c2c(ncn2CCCCOc2ccc3c(c2)[n+]([O-])nc(N)[n+]3[O-])n(C)c1=O | 30.7 µM (inactive) | 27.9 µM (inactive) | 17.1 µM (inactive) | 25.4 µM (inactive) |  | 31 µM (inactive) | 43.2 µM (inactive) | > 100 µM (inactive) | 37.4 µM (inactive) |  | 2.38 µM (inactive) | 32.9 µM (inactive) | 29.4 µM (inactive) | 51.6 µM (inactive) | 29 µM (inactive) | 16.4 µM (inactive) | 22.9 µM (inactive) | 23.9 µM (inactive) | 12.4 µM (inactive) | 41.8 µM (inactive) |
| CCOC(=O)NC(Nc1ccc(C)cc1)(C(F)(F)F)C(F)(F)F | > 100 µM (inactive) | > 100 µM (inactive) | > 100 µM (inactive) | > 100 µM (inactive) | > 100 µM (inactive) | > 100 µM (inactive) | > 100 µM (inactive) | > 100 µM (inactive) | > 100 µM (inactive) | > 100 µM (inactive) | > 100 µM (inactive) | > 100 µM (inactive) | > 100 µM (inactive) | > 100 µM (inactive) | > 100 µM (inactive) | > 100 µM (inactive) | > 100 µM (inactive) |  | > 100 µM (inactive) | > 100 µM (inactive) |
| CCOC(=O)CCC(NC(=O)c1ccc(Oc2nc3c(N)cc(C(F)(F)F)cc3nc2-c2ccccc2)cc1)C(=O)OCC (stereo not drawn) | > 27.1 µM (inactive) | 5.05 µM (inactive) | > 46.3 µM (inactive) | > 100 µM (inactive) | 8.24 µM (inactive) | 54.3 µM (inactive) | 2.43 µM (inactive) | 70 µM (inactive) | 45.9 µM (inactive) |  | 39.6 µM (inactive) | 13.8 µM (inactive) | 47 µM (inactive) | 14.6 µM (inactive) | 3.42 µM (inactive) | 5.96 µM (inactive) | 11.7 µM (inactive) | > 27.9 µM (inactive) | 21.3 µM (inactive) | 19.2 µM (inactive) |
| CC(=O)OCC1OC(SC2=NC(=O)/C(=C/c3ccccc3)S2)C(OC(C)=O)C(OC(C)=O)C1OC(C)=O (stereo not drawn) | 22.4 µM (inactive) | 18.2 µM (inactive) | 21.1 µM (inactive) | 21.8 µM (inactive) | 48.2 µM (inactive) | 42.2 µM (inactive) | 37.8 µM (inactive) | 23.1 µM (inactive) | 49.8 µM (inactive) | > 100 µM (inactive) | 24.2 µM (inactive) | 20.1 µM (inactive) | 31.9 µM (inactive) |  | 16.9 µM (inactive) | 32.9 µM (inactive) | 23.3 µM (inactive) | 34.2 µM (inactive) | 52.5 µM (inactive) | 32 µM (inactive) |
